Laboratory results as given in PubChem BioAssay (NCI).
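Grown in 96-well plates, cells were treated for 48 hours with each compound at five concentrations. Insufficient inhibition: endpoint recorded as highest concentration tested. TGI: total growth inhibition.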

What was measured:
Assay in all cases: NCI anticancer screen, dose series, 48 h
CAKI-1 renal = system: CAKI-1 renal
BT-549 breast = system: BT-549 breast
U251 CNS = system: U251 CNS
MCF7 breast = system: MCF7 breast
MOLT-4 leukemia = system: MOLT-4 leukemia
SNB-75 CNS = system: SNB-75 CNS
RPMI-8226 leukemia = system: RPMI-8226 leukemia
A549 NSCLC = system: A549 NSCLC
M19-MEL melanoma = system: M19-MEL melanoma
NCI-H460 lung = system: NCI-H460 lung
HOP-18 NSCLC = system: HOP-18 NSCLC
MDA-N = system: MDA-N
XF 498 CNS = system: XF 498 CNS
NCI/ADR-RES ovarian = system: NCI/ADR-RES ovarian
M14 melanoma = system: M14 melanoma
SF-268 CNS = system: SF-268 CNS
A498 renal = system: A498 renal
EKVX NSCLC = system: EKVX NSCLC
SK-MEL-2 melanoma = system: SK-MEL-2 melanoma
OVCAR-8 ovarian = system: OVCAR-8 ovarian
UO-31 renal = system: UO-31 renal
HCC-2998 colon = system: HCC-2998 colon
ACHN renal = system: ACHN renal
UACC-62 melanoma = system: UACC-62 melanoma
LOX IMVI melanoma = system: LOX IMVI melanoma
SK-MEL-28 melanoma = system: SK-MEL-28 melanoma
OVCAR-5 ovarian = system: OVCAR-5 ovarian
HS 578T breast = system: HS 578T breast
SW-620 colon = system: SW-620 colon
MDA-MB-435 = system: MDA-MB-435
SNB-78 CNS = system: SNB-78 CNS
HT29 colon = system: HT29 colon
NCI-H226 lung = system: NCI-H226 lung
KM12 colon = system: KM12 colon
SNB-19 CNS = system: SNB-19 CNS
DMS 273 small cell lung = system: DMS 273 small cell lung
OVCAR-4 ovarian = system: OVCAR-4 ovarian
MDA-MB-231 breast = system: MDA-MB-231 breast
HOP-62 NSCLC = system: HOP-62 NSCLC
SN12C renal = system: SN12C renal
SR leukemia = system: SR leukemia
LXFL 529 NSCLC = system: LXFL 529 NSCLC
DLD-1 colon = system: DLD-1 colon
NCI-H23 lung = system: NCI-H23 lung
HL-60(TB) leukemia = system: HL-60(TB) leukemia
HCT-15 colon = system: HCT-15 colon
RXF 393 renal = system: RXF 393 renal
SF-539 CNS = system: SF-539 CNS
HCT-116 colon = system: HCT-116 colon
TK-10 renal = system: TK-10 renal
HOP-92 NSCLC = system: HOP-92 NSCLC
IGROV1 ovarian = system: IGROV1 ovarian
K-562 leukemia = system: K-562 leukemia
DMS 114 small cell lung = system: DMS 114 small cell lung
DU-145 prostate = system: DU-145 prostate
UACC-257 melanoma = system: UACC-257 melanoma
CCRF-CEM leukemia = system: CCRF-CEM leukemia
MALME-3M melanoma = system: MALME-3M melanoma
T-47D breast = system: T-47D breast
NCI-H522 lung = system: NCI-H522 lung
786-0 renal = system: 786-0 renal
SF-295 CNS = system: SF-295 CNS
COLO 205 colon = system: COLO 205 colon
SK-MEL-5 melanoma = system: SK-MEL-5 melanoma
PC-3 prostate = system: PC-3 prostate
SK-OV-3 ovarian = system: SK-OV-3 ovarian
OVCAR-3 ovarian = system: OVCAR-3 ovarian
KM20L2 colon = system: KM20L2 colon
RXF-631 renal = system: RXF-631 renal

In the case of `COc1cc(NS(C)(=O)=O)ccc1Nc1c2ccccc2nc2c1[nH]c1ccc(NC3OC(CO)C(O)C(O)C3O)cc12` (configuration not stated), the TGI (CAKI-1 renal) is reported as 0.091 µM, the TGI (BT-549 breast) is reported as 5.69 µM and the TGI (U251 CNS) is reported as 0.332 µM. The TGI (MCF7 breast) was 10.1 µM, the TGI (MOLT-4 leukemia) was 3.65 µM and the TGI (SNB-75 CNS) was 0.388 µM. For the same compound, the TGI (RPMI-8226 leukemia) was 3.85 µM, the TGI (A549 NSCLC) was 0.235 µM and the TGI (M19-MEL melanoma) was 1.75 µM. The TGI (NCI-H460 lung) was 0.196 µM, the TGI (HOP-18 NSCLC) was 1.65 µM and the TGI (MDA-N) was 2.71 µM. For the same compound, the TGI (XF 498 CNS) was 0.832 µM, the TGI (NCI/ADR-RES ovarian) was 45.8 µM and the TGI (M14 melanoma) was 0.971 µM. The TGI (SF-268 CNS) was 1.51 µM, the TGI (A498 renal) was 0.881 µM and the TGI (EKVX NSCLC) was 4.98 µM. For the same compound, the TGI (SK-MEL-2 melanoma) was 1.36 µM, the TGI (OVCAR-8 ovarian) was 0.95 µM and the TGI (UO-31 renal) was 1.19 µM. It also gave a TGI (HCC-2998 colon) of 0.809 µM, a TGI (ACHN renal) of 0.137 µM and a TGI (UACC-62 melanoma) of 1.08 µM. It also gave a TGI (LOX IMVI melanoma) of 1.18 µM, a TGI (SK-MEL-28 melanoma) of 1.96 µM and a TGI (OVCAR-5 ovarian) of 2.09 µM. It also gave a TGI (HS 578T breast) of 4.29 µM, a TGI (SW-620 colon) of 2.08 µM and a TGI (MDA-MB-435) of 7.06 µM. The TGI (SNB-78 CNS) was 9.3 µM, the TGI (HT29 colon) was 0.938 µM and the TGI (NCI-H226 lung) was 0.201 µM. The TGI (KM12 colon) was 1.21 µM, the TGI (SNB-19 CNS) was 1.46 µM and the TGI (DMS 273 small cell lung) was 0.261 µM. It also gave a TGI (OVCAR-4 ovarian) of 4.66 µM, a TGI (MDA-MB-231 breast) of 8.11 µM and a TGI (HOP-62 NSCLC) of 0.208 µM. For the same compound, the TGI (SN12C renal) was 0.387 µM, the TGI (SR leukemia) was over 100 µM and the TGI (LXFL 529 NSCLC) was 2.46 µM. It also gave a TGI (DLD-1 colon) of 1.93 µM, a TGI (NCI-H23 lung) of 0.27 µM and a TGI (HL-60(TB) leukemia) of 0.282 µM. It also gave a TGI (HCT-15 colon) of 2.14 µM, a TGI (RXF 393 renal) of 0.61 µM and a TGI (SF-539 CNS) of 0.0405 µM. It also gave a TGI (HCT-116 colon) of 1.43 µM, a TGI (TK-10 renal) of 0.7 µM and a TGI (HOP-92 NSCLC) of 1.04 µM. It also gave a TGI (IGROV1 ovarian) of 3.47 µM, a TGI (K-562 leukemia) of 20.3 µM and a TGI (DMS 114 small cell lung) of 0.0784 µM. For the same compound, the TGI (DU-145 prostate) was 0.245 µM, the TGI (UACC-257 melanoma) was 11 µM and the TGI (CCRF-CEM leukemia) was 3.12 µM. For the same compound, the TGI (MALME-3M melanoma) was 1.43 µM, the TGI (T-47D breast) was 15.7 µM and the TGI (NCI-H522 lung) was 0.387 µM. The TGI (786-0 renal) was 0.339 µM, the TGI (SF-295 CNS) was 0.13 µM and the TGI (COLO 205 colon) was 2.76 µM. The TGI (SK-MEL-5 melanoma) was 1.31 µM, the TGI (PC-3 prostate) was 3.6 µM and the TGI (SK-OV-3 ovarian) was 0.299 µM. It also gave a TGI (OVCAR-3 ovarian) of 2 µM and a TGI (KM20L2 colon) of 1.87 µM.
`Cc1[nH]c2ccccc2c1C(=O)/C=C/c1ccccc1O` showed a TGI (CAKI-1 renal) of over 100 µM, a TGI (U251 CNS) of over 100 µM and a TGI (MOLT-4 leukemia) of over 100 µM. For the same compound, the TGI (SNB-75 CNS) was over 100 µM, the TGI (A549 NSCLC) was over 100 µM and the TGI (M19-MEL melanoma) was over 100 µM. The TGI (NCI-H460 lung) was over 100 µM, the TGI (HOP-18 NSCLC) was over 100 µM and the TGI (XF 498 CNS) was over 100 µM. The TGI (M14 melanoma) was over 100 µM, the TGI (SF-268 CNS) was over 100 µM and the TGI (A498 renal) was over 100 µM. For the same compound, the TGI (EKVX NSCLC) was over 100 µM, the TGI (SK-MEL-2 melanoma) was over 100 µM and the TGI (OVCAR-8 ovarian) was over 100 µM. For the same compound, the TGI (UO-31 renal) was over 100 µM, the TGI (HCC-2998 colon) was over 100 µM and the TGI (ACHN renal) was over 100 µM. The TGI (UACC-62 melanoma) was over 100 µM, the TGI (LOX IMVI melanoma) was over 100 µM and the TGI (SK-MEL-28 melanoma) was over 100 µM. For the same compound, the TGI (OVCAR-5 ovarian) was over 100 µM, the TGI (SW-620 colon) was over 100 µM and the TGI (HT29 colon) was over 100 µM. For the same compound, the TGI (KM12 colon) was over 100 µM, the TGI (SNB-19 CNS) was over 100 µM and the TGI (DMS 273 small cell lung) was over 100 µM. It also gave a TGI (OVCAR-4 ovarian) of over 100 µM, a TGI (HOP-62 NSCLC) of over 100 µM and a TGI (SN12C renal) of over 100 µM. It also gave a TGI (SR leukemia) of over 100 µM, a TGI (LXFL 529 NSCLC) of over 100 µM and a TGI (DLD-1 colon) of over 100 µM. For the same compound, the TGI (NCI-H23 lung) was over 100 µM, the TGI (HL-60(TB) leukemia) was over 100 µM and the TGI (RXF 393 renal) was over 100 µM. The TGI (HCT-116 colon) was over 100 µM, the TGI (TK-10 renal) was over 100 µM and the TGI (IGROV1 ovarian) was over 100 µM. The TGI (K-562 leukemia) was over 100 µM, the TGI (UACC-257 melanoma) was over 100 µM and the TGI (CCRF-CEM leukemia) was over 100 µM. For the same compound, the TGI (MALME-3M melanoma) was over 100 µM, the TGI (NCI-H522 lung) was over 100 µM and the TGI (786-0 renal) was over 100 µM. It also gave a TGI (SF-295 CNS) of over 100 µM, a TGI (COLO 205 colon) of over 100 µM and a TGI (SK-MEL-5 melanoma) of over 100 µM. The TGI (SK-OV-3 ovarian) was over 100 µM, the TGI (OVCAR-3 ovarian) was over 100 µM and the TGI (KM20L2 colon) was over 100 µM.
Compound `CC1CN(C(=O)CN2CCC(CCCCN(C)C)CC2)c2ccccc2NC1=O` (configuration not stated) has a TGI (CAKI-1 renal) of over 100 µM, a TGI (U251 CNS) of over 100 µM and a TGI (MOLT-4 leukemia) of over 100 µM. It also gave a TGI (RPMI-8226 leukemia) of over 100 µM, a TGI (A549 NSCLC) of over 100 µM and a TGI (M19-MEL melanoma) of over 100 µM. It also gave a TGI (NCI-H460 lung) of over 100 µM, a TGI (HOP-18 NSCLC) of over 100 µM and a TGI (RXF-631 renal) of over 100 µM. For the same compound, the TGI (M14 melanoma) was over 100 µM, the TGI (SF-268 CNS) was over 100 µM and the TGI (A498 renal) was over 100 µM. For the same compound, the TGI (UO-31 renal) was over 100 µM, the TGI (HCC-2998 colon) was over 100 µM and the TGI (ACHN renal) was over 100 µM. The TGI (UACC-62 melanoma) was over 100 µM, the TGI (LOX IMVI melanoma) was over 100 µM and the TGI (SK-MEL-28 melanoma) was over 100 µM. It also gave a TGI (OVCAR-5 ovarian) of over 100 µM, a TGI (SW-620 colon) of over 100 µM and a TGI (HT29 colon) of over 100 µM. It also gave a TGI (NCI-H226 lung) of over 100 µM, a TGI (SNB-19 CNS) of over 100 µM and a TGI (DMS 273 small cell lung) of over 100 µM. It also gave a TGI (OVCAR-4 ovarian) of over 100 µM, a TGI (HOP-62 NSCLC) of over 100 µM and a TGI (SN12C renal) of over 100 µM. For the same compound, the TGI (SR leukemia) was over 100 µM, the TGI (LXFL 529 NSCLC) was over 100 µM and the TGI (DLD-1 colon) was over 100 µM. The TGI (NCI-H23 lung) was over 100 µM, the TGI (HL-60(TB) leukemia) was over 100 µM and the TGI (HCT-15 colon) was over 100 µM. For the same compound, the TGI (HCT-116 colon) was over 100 µM, the TGI (HOP-92 NSCLC) was over 100 µM and the TGI (IGROV1 ovarian) was over 100 µM. It also gave a TGI (K-562 leukemia) of over 100 µM, a TGI (DMS 114 small cell lung) of over 100 µM and a TGI (UACC-257 melanoma) of over 100 µM. It also gave a TGI (CCRF-CEM leukemia) of over 100 µM, a TGI (MALME-3M melanoma) of over 100 µM and a TGI (786-0 renal) of over 100 µM. It also gave a TGI (SF-295 CNS) of over 100 µM, a TGI (COLO 205 colon) of over 100 µM and a TGI (SK-MEL-5 melanoma) of over 100 µM. It also gave a TGI (SK-OV-3 ovarian) of over 100 µM, a TGI (OVCAR-3 ovarian) of over 100 µM and a TGI (KM20L2 colon) of over 100 µM.
